In brackets after ≈: the same amount, converted by molar mass.
Key:
[1] = The cytotoxic activity was evaluated in MDBK cells; format: functional; conditions: Bos taurus
[2] = Tested for activity against A/WSN/33 influenza strain-induced toxicity in MDBK cells by using cell protection assay; format: functional, organism-based
[3] = Tested for activity against A/WSN/33 influenza strain-induced toxicity in MDBK cells by using cell protection assay; Not active; format: functional, organism-based
[4] = The compound was tested for activity against A/WSN/33 influenza strain-induced toxicity in MDBK cells by using cell protection assay; Not active at 50 ug/mL; format: functional, cell-based, Bos taurus

Cc1ccc(O)c(C(=O)NCCCN2[C@@H](C)CC[C@@H]3CCCC[C@@H]32)c1
CC50 [1]: > 100 µg/mL | EC50 [2]: 6 µg/mL (≈ 17.4 µM)

Cc1ccc(O)c(C(=O)NCCCN2[C@H](C)CC[C@@H]3CCCC[C@@H]32)c1
CC50 [1]: 35 µg/mL (≈ 102 µM) | EC50 [2]: 0.19 µg/mL (≈ 0.552 µM)

Cc1ccc(O)c(C(=O)NCCCN2[C@H](C)CCC[C@@H]2C)c1
CC50 [1]: > 100 µg/mL | EC50 [2]: 1.8 µg/mL (≈ 5.91 µM)

Cc1ccc(O)c(C(=O)NCCCN2CCC[C@@H]3CCCC[C@@H]32)c1
CC50 [1]: > 100 µg/mL | EC50 [2]: 0.65 µg/mL (≈ 1.97 µM)

Cc1ccc(O)c(C(=O)NC2CC3CCC(C2)N3C)c1 (centres undefined)
CC50 [1]: 100 µg/mL (≈ 364 µM) | EC50 [3]: Not Active

Cc1ccc(O)c(C(=O)NCCCCN2[C@H](C)CCC[C@@H]2C)c1
CC50 [1]: > 100 µg/mL | EC50 [2]: 0.7 µg/mL (≈ 2.2 µM)

CC1CC[C@@H]2CCCC[C@@H]2N1CCCNC(=O)c1cc(Cl)ccc1O (some centres undefined)
CC50 [1]: 40 µg/mL (≈ 110 µM) | EC50 [2]: 0.09 µg/mL (≈ 0.247 µM)

Cc1ccc(O)c(C(=O)NCCCN2CCC[C@@H]3CCCC[C@H]32)c1
CC50 [1]: 60 µg/mL (≈ 182 µM) | EC50 [2]: 0.35 µg/mL (≈ 1.06 µM)

Cc1ccc(O)c(C(=O)NCCCN2C(C(C)C)CC[C@@H]3CCCC[C@@H]32)c1 (some centres undefined)
CC50 [1]: 80 µg/mL (≈ 215 µM) | EC50 [2]: 0.25 µg/mL (≈ 0.671 µM)

O=C(NCCCN1CCC[C@@H]2CCCC[C@H]21)c1cc(Cl)ccc1O
CC50 [1]: 45 µg/mL (≈ 128 µM) | EC50 [2]: 1.4 µg/mL (≈ 3.99 µM)

Cc1ccc(O)c(C(=O)NCCCN(C(C)C)C(C)C)c1
CC50 [1]: > 100 µg/mL | EC50 [2]: 0.9 µg/mL (≈ 3.08 µM)

C[C@@H]1CCC[C@@H]2C[C@@H](NC(=O)c3cc(Cl)ccc3O)CCN21
CC50 [1]: > 200 µg/mL | EC50 [2]: 0.8 µg/mL (≈ 2.48 µM)

C[C@@H]1CCC[C@H](C)N1CCCNC(=O)c1cc(Cl)ccc1O
CC50 [1]: 30 µg/mL (≈ 92.3 µM) | EC50 [2]: 4.5 µg/mL (≈ 13.9 µM)

Cc1ccc(O)c(C(=O)NCCCCN2CCC[C@@H]3CCCC[C@@H]32)c1
CC50 [1]: 30 µg/mL (≈ 87.1 µM) | EC50 [3]: Not Active

C[C@@H]1CCC[C@H](C)N1CCCCNC(=O)c1cc(Cl)ccc1O
CC50 [1]: 100 µg/mL (≈ 295 µM) | EC50 [2]: 1 µg/mL (≈ 2.95 µM)

Cc1ccc(O)c(C(=O)NCCCCN2C(C)CC[C@@H]3CCCC[C@@H]32)c1 (some centres undefined)
CC50 [1]: 90 µg/mL (≈ 251 µM) | EC50 [3]: Not Active

Cc1ccc(O)c(C(=O)NCCCN2CC(C)C[C@@H]3CCCC[C@@H]32)c1 (some centres undefined)
CC50 [1]: 9.5 µg/mL (≈ 27.6 µM) | EC50 [3]: Not Active

Cc1ccc(O)c(C(=O)NCCCN2CCC(C)[C@@H]3CCCC[C@@H]32)c1 (some centres undefined)
CC50 [1]: 100 µg/mL (≈ 290 µM) | EC50 [3]: Not Active

CCC(C)N1CCC(NC(=O)c2cc(C)ccc2O)CC1 (centres undefined)
EC50 [4]: Not Active | CC50 [1]: 100 µg/mL (≈ 344 µM)

CN1C2CCC1CC(NC(=O)c1cc(Cl)ccc1O)C2 (centres undefined)
CC50 [1]: 100 µg/mL (≈ 339 µM) | EC50 [3]: Not Active

O=C(NCCCN1CCC[C@@H]2CCCC[C@@H]21)c1cc(Cl)ccc1O
CC50 [1]: 43 µg/mL (≈ 123 µM) | EC50 [2]: 1.4 µg/mL (≈ 3.99 µM)

Cc1ccc(O)c(C(=O)NCCCN2C(C)CC[C@@H]3CCCC[C@H]32)c1 (single isomer, unassigned)
CC50 [1]: 30 µg/mL (≈ 87.1 µM) | EC50 [2]: 1.5 µg/mL (≈ 4.35 µM)

Reference: ChEMBL document CHEMBL1133031, “Salicylamide inhibitors of influenza virus fusion” (Bioorg Med Chem Lett, 2000)
